Measured values from patent EP0562479A1, “1-Phenyl-5-heterocyclic-1H-1, 2,4-triazole-3-carboxamide derivates, process for preparation of the same, and fungicidal composition comprising the same” (KUREHA CHEMICAL INDUSTRY CO., LTD., priority 1992, dated 1993).

System: Botrytis cinerea
Experiment: Test for controlling effect against cucumber gray mold
Type: in vivo, Botrytis cinerea on cucumber
Conditions: wettable powder sprayed 5 ml per pot, lesion areas three days after inoculation
Procedure: Test Example 1 〈Test for controlling effect against cucumber gray mold (Botrytis cinerea on cucumber)〉 A wettable powder similar to that prepared in Formulation Example 2, diluted with water to a prescribed concentration, was sprayed onto the cucumber plants of the first leaf stage (variety: […], one plant per pot) growing in an unglazed pot (diameter: 10 cm), in an amount of 5 ml per pot. After drying the sprayed leaves in the air, a circular cutting (diameter: 4 mm) of agar containing Botrytis cinerea, which had been cultured in advance in a potato-sucrose agar medium at 20°C for 3 days, was attached directly to the center part of the leaves, and the pots maintained at 20-22°C under high humidity conditions. Three days after the inoculation, lesion areas of the disease were examined to calculate the inhibition rate according to the following equation. [formula]

Row | SMILES | Inhibition rate (%) at concentration of 500 ppm Cucumber gray mold [%]
1 | CCCCOC(c1cccc(-n2nc(C(N)=O)nc2-c2cccc(C)n2)c1)C(C)C (centres unmarked) [Compound 7, 1-[3-[(1-butoxy-2-methyl)propyl]phenyl]-5-(6-methylpyridin-2-yl)-1H-1,2,4-triazole-3-carboxamide] | 95
2 | CCCCOC(c1cccc(-n2nc(C(N)=O)nc2-c2sccc2C)c1)C(C)C (centres unmarked) [Compound 16, 1-[3-[(1-butoxy-2-methyl)propyl]phenyl]-5-(3-methylthiophen-2-yl)-1H-1,2,4-triazole-3-carboxamide] | 94
